Measured values reported in article PMC5065625, “Structure-mechanism-based engineering of chemical regulators targeting distinct pathological factors in Alzheimer's disease” (Nature Communications, 2016).
Where a name gives a salt, the structure may show the parent alone.

Experiments:
metal-free Aβ40/Aβ42 = metal-free Aβ40/Aβ42 (Homo sapiens, UniProt P05067); parameters: method as in PMID 26575890; details: cited from earlier work
Solubility = type: physicochemical; details: water; HCl salt

Chain of metal-free Aβ40/Aβ42 (P05067 672-711 limits assumed): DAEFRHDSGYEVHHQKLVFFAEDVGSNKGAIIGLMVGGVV

SMILES | Interaction with Aβ and redirection of self-assembly (metal-free Aβ40/Aβ42) | solubility (Solubility)
CN(C)c1ccc(N)cc1 [DMPD, N,N-dimethyl-p-phenylenediamine] | interact with both metal-free Aβ and metal–Aβ and redirect their self-assembly routes to form off-pathway aggregates | 
Nc1ccc(NCc2ccccn2)cc1 [HCl salt of 1, N^1-(pyridin-2-ylmethyl)benzene-1,4-diamine] |  | ~800 mg/mL
